Target: GLP-1R (Homo sapiens, UniProt P43220)
Test: GLP-1R Activation - cAMP Assay
Type: cell-based
Conditions: each compound run on one of the two cAMP assays (Assay 1 or Assay 2, not specified)
Method in brief: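 CHO cells stably expressing GLP-1R, plated at 1,000 cells/well overnight, then equilibrated 1 h in HBSS with 20 mM Hepes and 0.1% BSA. Agonist added as 10-point dose response for 30 min at 37 °C. cAMP measured by HTRF (Cisbio Gs Dynamic kit); EC50 from sigmoidal fit.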

[1] = cAMP increase in CHO cells stably expressing GLP-1R

GLP-1R, sequence (P43220 24-463): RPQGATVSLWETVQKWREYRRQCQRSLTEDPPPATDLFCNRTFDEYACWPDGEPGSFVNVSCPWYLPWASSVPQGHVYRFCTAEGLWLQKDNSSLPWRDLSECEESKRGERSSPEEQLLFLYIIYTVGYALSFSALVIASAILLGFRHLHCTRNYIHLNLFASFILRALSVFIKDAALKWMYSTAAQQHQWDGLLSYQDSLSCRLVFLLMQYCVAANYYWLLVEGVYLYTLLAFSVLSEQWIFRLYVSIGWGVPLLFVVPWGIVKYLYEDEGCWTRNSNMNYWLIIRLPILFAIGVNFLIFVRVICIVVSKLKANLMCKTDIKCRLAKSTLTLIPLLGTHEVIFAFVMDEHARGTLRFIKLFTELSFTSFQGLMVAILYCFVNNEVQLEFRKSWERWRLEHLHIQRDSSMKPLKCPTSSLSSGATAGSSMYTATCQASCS

Row | Compound | EC50 [1] [nM] | EC50 ([…]) [nM]
1 | CC1(C)COC[C@H]1n1c(Cc2cc(F)c(-c3ccc(F)c(OCc4ccc(Cl)cc4)n3)cc2F)nc2ccc(C(=O)O)cc21 [Example 299, (S)-2-(4-(6-((4-chlorobenzyl)oxy)-5-fluoropyridin-2-yl)-2,5-difluorobenzyl)-1-(4,4-dimethyltetrahydrofuran-3-yl)-1H-benzo[d]imidazole-6-carboxylic acid] | 0.342 | 
2 | COCCn1c(Cc2cc(F)c(-c3cccc(OCc4ccc(-n5ccnc5)cc4F)n3)cc2F)nc2ccc(C(=O)O)cc21 [Example 61] | 0.83 | 
3 | CC1(C)COC[C@H]1n1c(Cc2c(F)cc(-c3ccc(F)c(OCc4ccc(C#N)cc4F)n3)c(F)c2F)nc2c(F)cc(C(=O)O)cc21 [Example 479, (S)-2-(4-(6-((4-cyano-2-fluorobenzyl)oxy)-5-fluoropyridin-2-yl)-2,3,6-trifluorobenzyl)-1-(4,4-dimethyltetrahydrofuran-3-yl)-4-fluoro-1H-benzo[d]imidazole-6-carboxylic acid] | 0.249 | 
4 | CC1(C)COC[C@H]1n1c(Cc2c(F)cc(-c3ccc(F)c(OCc4ccc(Cl)cc4F)n3)cc2F)nc2ccc(C(=O)O)cc21 [Example 303, (S)-2-(4-(6-((4-chloro-2-fluorobenzyl)oxy)-5-fluoropyridin-2-yl)-2,6-difluorobenzyl)-1-(4,4-dimethyltetrahydrofuran-3-yl)-1H-benzo[d]imidazole-6-carboxylic acid] | 0.17 | 
5 | CC(=O)N1C[C@@H](n2c(Cc3cc(F)c(-c4cccc(OCc5ccc(C#N)cc5F)n4)cc3F)nc3ccc(C(=O)O)cc32)C2(CC2)C1 [Example 15, (S)-1-(5-acetyl-5-azaspiro[2.4]heptan-7-yl)-2-(4-(6-((4-cyano-2-fluorobenzyl)oxy)pyridin-2-yl)-2,5-difluorobenzyl)-1H-benzo[d]imidazole-6-carboxylic Acid] |  | 71
6 | CC1(C)COC[C@H]1n1c(Cc2cc(F)c(-c3cccc(OCc4ccc(C#N)c(F)c4F)n3)cc2F)nc2c(F)cc(C(=O)O)cc21 [Example 500, (S)-2-(4-(6-((4-cyano-2,3-difluorobenzyl)oxy)pyridin-2-yl)-2,5-difluorobenzyl)-1-(4,4-dimethyltetrahydrofuran-3-yl)-4-fluoro-1H-benzo[d]imidazole-6-carboxylic Acid] | 0.203 | 
7 | Cc1cc(Cc2nc3ccc(C(=O)O)cc3n2[C@@H]2COCC2(C)C)c(F)cc1-c1ccc(F)c(OCc2ccc(C#N)cc2F)n1 [Example 279, (S)-2-(4-(6-((4-cyano-2-fluorobenzyl)oxy)-5-fluoropyridin-2-yl)-2-fluoro-5-methylbenzyl)-1-(4,4-dimethyltetrahydrofuran-3-yl)-1H-benzo[d]imidazole-6-carboxylic acid] | 0.195 | 
8 | CC1(C)COCC1n1c(Cc2cc(F)c(-c3cccc(OCc4cnc(Cl)cn4)n3)cc2F)nc2ccc(C(=O)O)cc21 (stereo not shown) [Example 93, 2-(4-(6-((5-chloropyrazin-2-yl)methoxy)pyridin-2-yl)-2,5-difluorobenzyl)-1-(4,4-dimethyltetrahydrofuran-3-yl)-1H-benzo[d]imidazole-6-carboxylic Acid] | 0.35 | 
9 | CC1(C)COC[C@H]1n1c(Cc2c(F)cc(-c3cccc(OCc4ccc(Cl)cc4)n3)c(F)c2F)nc2c(F)cc(C(=O)O)cc21 [Example 243, (S)-2-(4-(6-((4-chlorobenzyl)oxy)pyridin-2-yl)-2,3,6-trifluorobenzyl)-1-(4,4-dimethyltetrahydrofuran-3-yl)-4-fluoro-1H-benzo[d]imidazole-6-carboxylic acid] | 0.022 | 
10 | CC1(C)COC[C@H]1n1c(Cc2cc(F)c(-c3cccc(OCc4ncc(-n5ccnn5)cc4Cl)n3)cc2F)nc2ccc(C(=O)O)cc21 [Example 162, (S)-2-(4-(6-((3-chloro-5-(1H-1,2,3-triazol-1-yl)pyridin-2-yl)methoxy)pyridin-2-yl)-2,5-difluorobenzyl)-1-(4,4-dimethyltetrahydrofuran-3-yl)-1H-benzo[d]imidazole-6-carboxylic Acid] | 0.187 | 
11 | CC1(C)COCC1n1c(Cc2cc(F)c(-c3ccnc(OCc4ccc(Cl)cc4F)n3)cc2Cl)nc2c(F)cc(C(=O)O)cc21 (stereo not shown) [Example 343, 2-(2-chloro-4-(2-((4-chloro-2-fluorobenzyl)oxy)pyrimidin-4-yl)-5-fluorobenzyl)-1-(4,4-dimethyltetrahydrofuran-3-yl)-4-fluoro-1H-benzo[d]imidazole-6-carboxylic acid] | 0.113 | 
12 | CC1(C)COCC1n1c(Cc2c(F)cc(-c3cccc(OCc4ccc(C#N)cc4F)n3)c(F)c2F)nc2ccc(C(=O)O)cc21 (stereo not shown) [Example 293, 2-(4-(6-((4-cyano-2-fluorobenzyl)oxy)pyridin-2-yl)-2,3,6-trifluorobenzyl)-1-(4,4-dimethyltetrahydrofuran-3-yl)-1H-benzo[d]imidazole-6-carboxylic acid] | 0.04 | 
13 | CC1(C)COC[C@H]1n1c(Cc2cc(F)c(-c3ccc(F)c(OCc4ccccc4F)n3)cc2F)nc2ccc(C(=O)O)cc21 [Example 477, (S)-2-(2,5-difluoro-4-(5-fluoro-6-((2-fluorobenzyl)oxy)pyridin-2-yl)benzyl)-1-(4,4-dimethyltetrahydrofuran-3-yl)-1H-benzo[d]imidazole-6-carboxylic acid] | 0.171 | 
14 | N#Cc1ccc(COc2cccc(-c3cc(F)c(Cc4nc5ccc(C(=O)O)cc5n4C4COC5(COC5)C4)cc3F)n2)c(F)c1 (stereo not shown) [Example 202, 2-(4-(6-((4-cyano-2-fluorobenzyl)oxy)pyridin-2-yl)-2,5-difluorobenzyl)-1-(2,5-dioxaspiro[3.4]octan-7-yl)-1H-benzo[d]imidazole-6-carboxylic acid] | 4.01 | 
15 | COCCn1c(Cc2cc(F)c(-c3cccc(OCc4ccc(-c5ccnn5C)nc4)n3)cc2F)nc2ccc(C(=O)O)cc21 [Example 110, 2-(2,5-difluoro-4-(6-((6-(1-methyl-1H-pyrazol-5-yl)pyridin-3-yl)methoxy)pyridin-2-yl)benzyl)-1-(2-methoxyethyl)-1H-benzo[d]imidazole-6-carboxylic Acid] | 4.93 | 
16 | COc1cc(Cl)ncc1COc1cccc(-c2cc(F)c(Cc3nc4ccc(C(=O)O)cc4n3[C@@H]3COCC3(C)C)cc2F)n1 (single isomer, unassigned) [Example 290A] | 0.063 | 
17 | CC1(C)COC[C@H]1n1c(Cc2cc(F)c(-c3ccc(F)c(OCc4ccc(C#N)cc4F)n3)cc2F)nc2c(F)cc(C(=O)O)cc21 [Example 116, 2-[[4-[6-[(4-cyano-2-fluoro-phenyl)methoxy]-5-fluoro-2-pyridyl]-2,5-difluoro-phenyl]methyl]-3-[(3S)-4,4-dimethyltetrahydrofuran-3-yl]-7-fluorobenzimidazole-5-carboxylic Acid] | 0.005 | 
18 | CO[C@@H]1CN(S(C)(=O)=O)C[C@H]1n1c(Cc2cc(F)c(-c3cccc(OCc4ccc(C#N)cc4F)n3)cc2F)nc2ccc(C(=O)O)cc21 [Example 88] |  | 136
19 | Cc1cnc(COc2cccc(-c3cc(F)c(Cc4nc5ccc(C(=O)O)cc5n4[C@@H]4COCC4(C)C)cc3F)n2)c(F)c1 [Example 237, (S)-2-(2,5-difluoro-4-(6-((3-fluoro-5-methylpyridin-2-yl)methoxy)pyridin-2-yl)benzyl)-1-(4,4-dimethyltetrahydrofuran-3-yl)-1H-benzo[d]imidazole-6-carboxylic acid] | 0.52 | 
20 | CC1(C)COCC1n1c(Cc2cc(F)c(-c3cccc(OCc4cnc(-n5ccnn5)cc4Cl)n3)cc2F)nc2c(F)cc(C(=O)O)cc21 (stereo not shown) [Example 173, 2-(4-(6-((4-chloro-6-(1H-1,2,3-triazol-1-yl)pyridin-3-yl)methoxy)pyridin-2-yl)-2,5-difluorobenzyl)-1-(4,4-dimethyltetrahydrofuran-3-yl)-4-fluoro-1H-benzo[d]imidazole-6-carboxylic Acid] | 0.018 | 
21 | COCCn1c(Cc2cc(F)c(-c3cccc(OCc4cnc(Cl)cc4OC)n3)cc2F)nc2c(F)cc(C(=O)O)cc21 [Example 291, 2-(4-(6-((6-chloro-4-methoxypyridin-3-yl)methoxy)pyridin-2-yl)-2,5-difluorobenzyl)-4-fluoro-1-(2-methoxyethyl)-1H-benzo[d]imidazole-6-carboxylic acid] | 0.076 | 
22 | N#Cc1ccc(COc2cccc(-c3cc(F)c(Cc4nc5ccc(C(=O)O)cc5n4[C@H]4CNC(=O)C4)cc3F)n2)c(F)c1 [Example 3, (R)-2-(4-(6-((4-cyano-2-fluorobenzyl)oxy)pyridin-2-yl)-2,5-difluorobenzyl)-1-(5-oxopyrrolidin-3-yl)-1H-benzo[d]imidazole-6-carboxylic acid] |  | 11.5
23 | CC1(C)COC[C@H]1n1c(Cc2cc(F)c(-c3cccc(OCc4ccc(Cl)nc4F)n3)cc2F)nc2ccc(C(=O)O)cc21 [Example 249, (S)-2-(4-(6-((6-chloro-2-fluoropyridin-3-yl)methoxy)pyridin-2-yl)-2,5-difluorobenzyl)-1-(4,4-dimethyltetrahydrofuran-3-yl)-1H-benzo[d]imidazole-6-carboxylic acid] | 0.137 | 
24 | CC1(C)COC[C@H]1n1c(Cc2cc(F)c(-c3cccc(OCc4ccc(C#N)cc4F)n3)cc2F)nc2ccc(C(=O)O)nc21 [Example 439, (S)-2-(4-(6-((4-cyano-2-fluorobenzyl)oxy)pyridin-2-yl)-2,5-difluorobenzyl)-3-(4,4-dimethyltetrahydrofuran-3-yl)-3H-imidazo[4,5-b]pyridine-5-carboxylic acid] | 0.171 | 
25 | N#Cc1ccc(COc2cccc(-c3cc(F)c(Cc4nc5ccc(C(=O)O)cc5n4[C@@H]4COC[C@H]4C(F)F)cc3F)n2)c(F)c1 (racemic) [Example 269, 2-(4-(6-((4-cyano-2-fluorobenzyl)oxy)pyridin-2-yl)-2,5-difluorobenzyl)-1-((3S,4S)-4-(difluoromethyl)tetrahydrofuran-3-yl)-1H-benzo[d]imidazole-6-carboxylic acid] | 0.164 | 

— patent publication US12570642B2, “GLP-IR modulating compounds” (Gilead Sciences, Inc., priority 2021, dated 2026)
